# Laboratory results published in US10344060B2 (priority 2013, dated 2019).
# pIC50: −log10 of the molar value. Values joined by “and” are separate entries in the source; they are usually repeats but may differ in a detail not shown here. Equal values may be shown once. “Also recorded” adds a separate entry of the source. Read-outs that look alike come from different tables or passages of the source.
# How the values were obtained:
# [1] = rat plasma, 37° C., incubation time 0 hr (normalization point)
# [2] = biological target: T1, hNav1.5 (Homo sapiens, UniProt Q14524); test: cell-based; settings: IonWorks Quattro; Table 6; read-out: IC50 (μM) Nav1.5
# T1 sequence (Q14524 whole entry): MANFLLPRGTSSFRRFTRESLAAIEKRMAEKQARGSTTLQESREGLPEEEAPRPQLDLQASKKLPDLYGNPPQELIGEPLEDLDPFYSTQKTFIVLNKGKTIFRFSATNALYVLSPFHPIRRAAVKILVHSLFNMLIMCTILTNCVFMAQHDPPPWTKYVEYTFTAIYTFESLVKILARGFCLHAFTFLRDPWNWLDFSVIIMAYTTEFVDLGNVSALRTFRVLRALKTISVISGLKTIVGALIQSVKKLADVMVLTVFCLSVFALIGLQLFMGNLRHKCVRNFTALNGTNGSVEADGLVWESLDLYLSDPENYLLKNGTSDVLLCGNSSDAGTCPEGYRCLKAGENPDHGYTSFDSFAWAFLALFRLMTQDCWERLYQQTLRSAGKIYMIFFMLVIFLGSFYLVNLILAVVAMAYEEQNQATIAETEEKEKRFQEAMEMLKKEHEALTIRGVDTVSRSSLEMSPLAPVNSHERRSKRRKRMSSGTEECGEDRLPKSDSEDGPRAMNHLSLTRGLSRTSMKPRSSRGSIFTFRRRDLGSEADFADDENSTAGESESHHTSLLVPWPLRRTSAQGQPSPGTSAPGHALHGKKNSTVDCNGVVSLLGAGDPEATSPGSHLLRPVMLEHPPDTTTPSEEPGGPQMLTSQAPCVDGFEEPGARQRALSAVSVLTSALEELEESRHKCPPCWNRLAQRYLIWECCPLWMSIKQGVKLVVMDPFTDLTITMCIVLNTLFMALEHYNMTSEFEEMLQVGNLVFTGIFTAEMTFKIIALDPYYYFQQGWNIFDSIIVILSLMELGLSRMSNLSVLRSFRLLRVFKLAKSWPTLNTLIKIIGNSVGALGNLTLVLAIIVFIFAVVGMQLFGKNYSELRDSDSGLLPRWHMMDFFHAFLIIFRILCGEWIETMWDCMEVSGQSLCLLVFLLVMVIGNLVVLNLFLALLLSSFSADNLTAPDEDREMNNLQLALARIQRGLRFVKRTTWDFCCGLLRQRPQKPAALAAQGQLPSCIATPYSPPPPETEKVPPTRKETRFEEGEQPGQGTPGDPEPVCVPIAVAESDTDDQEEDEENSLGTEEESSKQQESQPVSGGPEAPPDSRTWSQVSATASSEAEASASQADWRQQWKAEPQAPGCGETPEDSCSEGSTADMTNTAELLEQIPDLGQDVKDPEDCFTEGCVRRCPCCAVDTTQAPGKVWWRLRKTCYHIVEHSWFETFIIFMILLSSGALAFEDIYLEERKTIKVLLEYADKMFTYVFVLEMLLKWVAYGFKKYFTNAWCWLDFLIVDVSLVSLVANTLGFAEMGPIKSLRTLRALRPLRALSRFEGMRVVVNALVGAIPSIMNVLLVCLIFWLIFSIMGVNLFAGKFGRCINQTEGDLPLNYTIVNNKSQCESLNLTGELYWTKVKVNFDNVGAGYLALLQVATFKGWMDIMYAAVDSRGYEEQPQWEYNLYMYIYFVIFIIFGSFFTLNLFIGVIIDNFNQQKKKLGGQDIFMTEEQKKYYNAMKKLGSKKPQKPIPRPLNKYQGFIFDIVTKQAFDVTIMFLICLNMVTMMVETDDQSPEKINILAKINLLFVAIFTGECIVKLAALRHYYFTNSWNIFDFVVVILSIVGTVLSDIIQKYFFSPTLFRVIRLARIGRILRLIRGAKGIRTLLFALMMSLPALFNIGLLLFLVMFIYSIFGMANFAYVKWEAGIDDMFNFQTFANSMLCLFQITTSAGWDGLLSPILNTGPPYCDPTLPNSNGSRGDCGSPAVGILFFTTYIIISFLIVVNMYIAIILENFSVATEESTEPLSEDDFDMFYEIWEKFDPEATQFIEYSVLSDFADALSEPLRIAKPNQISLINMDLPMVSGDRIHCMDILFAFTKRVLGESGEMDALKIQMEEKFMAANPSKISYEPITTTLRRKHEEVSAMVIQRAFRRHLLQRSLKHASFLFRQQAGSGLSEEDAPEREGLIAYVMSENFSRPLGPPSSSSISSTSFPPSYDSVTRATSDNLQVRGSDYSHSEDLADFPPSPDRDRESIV
# [3] = biological target: T2, hNav1.7 (Homo sapiens, UniProt Q15858); test: cell-based; format: cell-based
# [4] = biological target: hNav1.8 (Homo sapiens, UniProt Q9Y5Y9); test: cell-based; format: cell-based
# [5] = system: hNav1.8; test: cell-based; format: cell-based, human; settings: hNav1.8 / hNav1.7
# [6] = biological target: T1, hNav1.5; test: cell-based; format: cell-based
# [7] = biological target: T3, hNav1.4 (Homo sapiens, UniProt P35499); test: cell-based; format: cell-based
# [8] = biological target: hNav1.3 (Homo sapiens, UniProt Q9NY46); test: cell-based; format: cell-based
# [9] = system: TTX-sensitive Nav channels in mouse DRG neuron; settings: for 1.x/1.7: mTTX-S / hNav1.7
# [10] = system: TTX-resistant Nav channels in mouse DRG neuron
# [11] = biological target: T2, hNav1.7; test: cell-based; settings: ratio of IonWorks Quattro IC50 values, Nav1.4 over Nav1.7
# [12] = human plasma, 37° C., incubation 0 hr (normalisation point)
# [13] = cyno plasma, 37° C., incubation 0 hr (normalisation point)
# [14] = mouse plasma, 37° C., incubation 0 hr (normalisation point)
# [15] = biological target: T2, hNav1.7; test: cell-based; format: cell-based; settings: Table 15; read-out: PX hNav1.7 Tonic IC50
# [16] = biological target: T1, hNav1.5; test: cell-based; settings: Table 12; ratio of PX tonic IC50 values
# [17] = biological target: T3, hNav1.4; test: cell-based; format: cell-based; settings: Table 12; ratio of PX tonic IC50 values
# [18] = biological target: hNav1.6 (Homo sapiens, UniProt Q9UQD0); test: cell-based; format: cell-based
# [19] = biological target: human Nav1.1 (Homo sapiens, UniProt P35498); test: cell-based; format: cell-based
# [20] = biological target: human Nav1.2 (Homo sapiens, UniProt Q99250); test: cell-based; format: cell-based
# human Nav1.2, sequence (Q99250 whole entry): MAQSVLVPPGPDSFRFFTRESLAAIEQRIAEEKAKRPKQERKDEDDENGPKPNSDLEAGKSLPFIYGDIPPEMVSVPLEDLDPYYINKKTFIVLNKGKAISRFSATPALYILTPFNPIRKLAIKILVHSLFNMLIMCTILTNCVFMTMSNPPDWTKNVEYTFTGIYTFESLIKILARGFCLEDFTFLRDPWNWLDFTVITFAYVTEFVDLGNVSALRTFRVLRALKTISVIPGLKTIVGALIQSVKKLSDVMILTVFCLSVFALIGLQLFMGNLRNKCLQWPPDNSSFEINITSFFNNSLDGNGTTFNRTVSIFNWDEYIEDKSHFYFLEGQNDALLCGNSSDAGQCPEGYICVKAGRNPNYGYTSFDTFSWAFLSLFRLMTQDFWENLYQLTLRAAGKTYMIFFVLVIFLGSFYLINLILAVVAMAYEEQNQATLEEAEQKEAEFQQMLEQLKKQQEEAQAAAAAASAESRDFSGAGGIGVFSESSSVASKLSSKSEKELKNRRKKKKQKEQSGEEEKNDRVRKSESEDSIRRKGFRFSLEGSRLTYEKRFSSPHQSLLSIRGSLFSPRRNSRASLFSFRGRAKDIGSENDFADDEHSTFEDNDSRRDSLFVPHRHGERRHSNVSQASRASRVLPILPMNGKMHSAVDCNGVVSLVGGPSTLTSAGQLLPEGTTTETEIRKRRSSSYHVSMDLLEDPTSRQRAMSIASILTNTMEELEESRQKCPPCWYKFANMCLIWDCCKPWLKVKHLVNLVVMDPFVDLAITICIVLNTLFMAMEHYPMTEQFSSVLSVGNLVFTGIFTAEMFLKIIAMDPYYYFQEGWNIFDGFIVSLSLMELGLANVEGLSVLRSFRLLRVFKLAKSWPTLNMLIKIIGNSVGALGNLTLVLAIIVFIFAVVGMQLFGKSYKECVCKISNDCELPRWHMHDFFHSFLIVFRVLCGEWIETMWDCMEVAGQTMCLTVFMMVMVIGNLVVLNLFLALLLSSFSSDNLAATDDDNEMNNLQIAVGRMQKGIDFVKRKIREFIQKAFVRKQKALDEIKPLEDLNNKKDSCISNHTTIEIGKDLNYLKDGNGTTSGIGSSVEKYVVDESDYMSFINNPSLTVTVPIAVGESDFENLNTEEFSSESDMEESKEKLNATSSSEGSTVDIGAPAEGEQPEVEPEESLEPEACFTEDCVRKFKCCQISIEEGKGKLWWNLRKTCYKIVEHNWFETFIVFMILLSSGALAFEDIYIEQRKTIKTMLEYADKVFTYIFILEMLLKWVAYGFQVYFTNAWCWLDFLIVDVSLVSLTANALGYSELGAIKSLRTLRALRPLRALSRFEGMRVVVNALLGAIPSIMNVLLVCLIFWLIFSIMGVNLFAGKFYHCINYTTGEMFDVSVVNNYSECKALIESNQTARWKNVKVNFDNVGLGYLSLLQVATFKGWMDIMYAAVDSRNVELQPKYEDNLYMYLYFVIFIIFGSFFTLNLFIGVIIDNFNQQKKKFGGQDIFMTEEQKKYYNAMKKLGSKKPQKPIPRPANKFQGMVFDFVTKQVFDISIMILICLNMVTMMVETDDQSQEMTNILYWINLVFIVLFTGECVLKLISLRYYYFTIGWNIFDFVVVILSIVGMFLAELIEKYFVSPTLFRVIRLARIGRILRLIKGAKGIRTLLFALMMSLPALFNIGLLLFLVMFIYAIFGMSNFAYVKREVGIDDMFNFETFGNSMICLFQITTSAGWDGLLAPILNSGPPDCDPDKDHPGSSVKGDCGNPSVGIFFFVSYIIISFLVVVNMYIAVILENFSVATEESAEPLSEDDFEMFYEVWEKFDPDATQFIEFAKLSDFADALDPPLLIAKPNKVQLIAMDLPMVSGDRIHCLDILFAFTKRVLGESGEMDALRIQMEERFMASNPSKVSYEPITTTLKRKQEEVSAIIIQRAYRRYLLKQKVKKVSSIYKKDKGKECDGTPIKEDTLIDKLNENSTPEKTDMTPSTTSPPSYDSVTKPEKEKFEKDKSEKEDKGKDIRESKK
# [21] = biological target: human Nav1.6 (Homo sapiens, UniProt Q9UQD0); test: cell-based; format: cell-based
# [22] = system: TTX-sensitive Nav channels in Sprague Dawley rat DRG neuron
# [23] = male CD-1 mice, 5 mg/kg s.c.
# [24] = in vivo; settings: male, CD-1, mouse, sc, 5 mg/kg
# [25] = manual WCPC, ~20% inactivation, read-out: IC50 of hNav1.5 inhibition
smiles,measurement,setting,value
"CC[C@H](C)[C@H](NC(=O)[C@H](CCCCN)NC(=O)[C@H](CCCNC(=N)N)NC(=O)[C@@H]1CSSC[C@@H]2NC(=O)[C@H](C)NC(=O)[C@H](CCCNC(=N)N)NC(=O)[C@H](CCCCN)NC(=O)[C@H](CO)NC(=O)[C@H](CC(=O)O)NC(=O)[C@@H]3CSSC[C@H](NC(=O)[C@H](CCC(=O)O)NC(=O)[C@H](CC(C)C)NC(=O)CNC(=O)[C@H](CCC(=O)O)NC(=O)[C@H](CSSC[C@H](NC(=O)[C@@H](N)Cc4ccc(O)cc4)C(=O)N[C@@H](CCC(N)=O)C(=O)N[C@@H](CCCCN)C(=O)N[C@@H](Cc4c[nH]c5ccccc45)C(=O)N[C@@H](CCSC)C(=O)N[C@@H](Cc4c[nH]c5ccccc45)C(=O)N[C@@H]([C@@H](C)O)C(=O)N3)NC2=O)C(=O)N[C@@H](CCCCN)C(=O)N[C@@H](CC(C)C)C(=O)N[C@@H](Cc2c[nH]c3ccccc23)C(=O)N1)C(=O)N[C@@H](Cc1c[nH]c2ccccc12)C(N)=O [SEQ ID NO: 112, [Glu20,Trp29]JzTx-V(1-29)]",% Peptide Remaining,[1],100%
CC[C@H](C)[C@H](NC(=O)[C@@H](NC(=O)[C@H](CCCCN)NC(=O)[C@H](CCCNC(=N)N)NC(=O)[C@@H]1CSSC[C@@H]2NC(=O)[C@H](C)NC(=O)[C@H](CCCNC(=N)N)NC(=O)[C@H](CCCCN)NC(=O)[C@H](CO)NC(=O)[C@H](CC(=O)O)NC(=O)[C@@H]3CSSC[C@H](NC(=O)[C@H](CCCNC(=N)N)NC(=O)[C@H](CC(C)C)NC(=O)CNC(=O)[C@H](CCC(=O)O)NC(=O)[C@H](CSSC[C@H](NC(=O)[C@@H](N)Cc4ccc(O)cc4)C(=O)N[C@@H](CCC(N)=O)C(=O)N[C@@H](CCCCN)C(=O)N[C@@H](Cc4c[nH]c5ccccc45)C(=O)N[C@@H](CCSC)C(=O)N[C@@H](Cc4c[nH]c5ccccc45)C(=O)N[C@@H]([C@@H](C)O)C(=O)N3)NC2=O)C(=O)N[C@@H](CCCCN)C(=O)N[C@@H](CC(C)C)C(=O)N[C@@H](Cc2c[nH]c3ccccc23)C(=O)N1)[C@@H](C)CC)C(N)=O [compound 2],IC50,[2],3 µM and 3.5 µM
same,"inhibition of hNav1.7 current, in words",[3]; 1 nM as printed,complete inhibition
same,"block of hNav1.7 current, in words",[3]; 1 μM,blocked all Nav1.7 current
same,block of TTX-resistant hNav1.8 current,[4],approximately 50%
same,"inhibition of hNav1.8 current, in words",[4],only partial inhibition
same,1.x/1.7,[5]; fully non-inactivated,5724
same,1.x/1.7,[5]; partially inactivated,3282
same,"block of hNav1.5 current, in words","[6]; 3 μM, held at −85 mV",blocked most Nav1.5 current; also recorded: nearly complete inhibition
same,pIC50,[6]; [25],6.37
same,"block of hNav1.4 current, in words","[7]; 100 nM, held at −83 mV",completely blocked Nav1.4 current; also recorded: complete inhibition
same,"block of hNav1.3 current, in words","[8]; 300 nM, held at −80 mV",completely blocked Nav1.3 current; also recorded: complete inhibition
same,1.x/1.7,[9]; fully non-inactivated,530
same,"block of TTX-sensitive Nav current, in words","[9]; increasing concentrations, time course",blocked nearly all TTX-sensitive Nav current
same,1.x/1.7,[9]; partially inactivated,111
same,pIC50,[10],< 6.00
same,IC50 of TTX-resistant sodium channel current inhibition,[10],not measurable
CC[C@H](C)[C@H](NC(=O)[C@H](CO)NC(=O)[C@H](CCCCN)NC(=O)[C@H](CCCNC(=N)N)NC(=O)[C@@H]1CSSC[C@@H]2NC(=O)[C@H](C)NC(=O)[C@H](CCCNC(=N)N)NC(=O)[C@H](CCCCN)NC(=O)[C@H](CO)NC(=O)[C@H](CC(=O)O)NC(=O)[C@@H]3CSSC[C@H](NC(=O)[C@H](CCC(=O)O)NC(=O)[C@H](CC(C)C)NC(=O)CNC(=O)[C@H](CCC(=O)O)NC(=O)[C@H](CSSC[C@H](NC(=O)[C@@H](N)Cc4ccc(O)cc4)C(=O)N[C@@H](CCC(N)=O)C(=O)N[C@@H](CCCCN)C(=O)N[C@@H](Cc4c[nH]c5ccccc45)C(=O)N[C@@H](CCSC)C(=O)N[C@@H](Cc4c[nH]c5ccccc45)C(=O)N[C@@H]([C@@H](C)O)C(=O)N3)NC2=O)C(=O)N[C@@H](CCCCN)C(=O)N[C@@H](CC(C)C)C(=O)N[C@@H](Cc2c[nH]c3ccccc23)C(=O)N1)C(N)=O [compound 138],Nav1.4/Nav1.7,[11],62 and 34
same,% Peptide Remaining,[12],100%
same,% Peptide Remaining,[13],100%
same,% Peptide Remaining,[14],100%
C#CC[C@H](N)C(=O)N[C@@H](Cc1ccc(O)cc1)C(=O)N[C@H]1CSSC[C@@H]2NC(=O)[C@@H]3CSSC[C@@H](C(=O)N[C@@H](CCCNC(=N)N)C(=O)N[C@@H](CCCCN)C(=O)N[C@@H](CCC(=O)O)C(=O)N[C@H](C(N)=O)[C@@H](C)CC)NC(=O)[C@H](Cc4c[nH]c5ccccc45)NC(=O)[C@H](CC(C)C)NC(=O)[C@H](CCCCN)NC(=O)[C@H](CSSC[C@H](NC(=O)[C@H]([C@@H](C)O)NC(=O)[C@H](Cc4c[nH]c5ccccc45)NC(=O)[C@H](CCCC)NC(=O)[C@H](Cc4c[nH]c5ccccc45)NC(=O)[C@H](CCCCN)NC(=O)[C@H](CCC(N)=O)NC1=O)C(=O)N[C@@H](CC(=O)O)C(=O)N[C@@H](CO)C(=O)N[C@@H](CCCCN)C(=O)N[C@@H](CCCNC(=N)N)C(=O)N[C@@H](C)C(=O)N3)NC(=O)[C@H](CCCNC(=N)N)NC(=O)[C@H](CC(C)C)NC(=O)CNC(=O)[C@H](CCC(=O)O)NC2=O [compound 328],pIC50,[15],9.26
same,Nav1.5/Nav1.7,[16],5854
same,Nav1.4/Nav1.7,[17],253
same,selectivity for Nav1.7 over Nav1.6,[18]; PatchXpress,334 fold
same,Nav1.6/Nav1.7,"[18]; Table 15, ratio of PX tonic IC50 values",334
same,pIC50,"[18]; Table 15, read-out: PX hNav1.6 Tonic IC50",6.74
same,block of hNav1.7 current,[3]; 100 nM,approximately 95%
same,"potency against hNav1.7, in words",[3]; manual WCPC,sub-nanomolar potency
same,selectivity for hNav1.7 against other human VGSCs,"[3]; manual WCPC, hNav1.1-hNav1.8",> 30 fold
same,pIC50,[3]; read-out: IC50 of hNav1.7 inhibition,9.21
same,pIC50,[4],< 6.00
same,block of TTX-resistant hNav1.8 current,[4]; 1000 nM,approximately 30%
same,pIC50,"[4]; WCPC, partially inactivated, hNav1.8, n=2, read-out: Mean IC50",< 6.00
same,1.x/1.7,[5]; partially inactivated,>1613
same,block of hNav1.5 current,"[6]; 1000 nM, held at −77 mV",less than 10%
same,pIC50,"[6]; WCPC, partially inactivated, hNav1.5, n=2, read-out: Mean IC50",< 6.00
same,pIC50,[6]; [25],< 6.00
same,1.x/1.7,"[6]; partially inactivated, hNav1.5 / hNav1.7",>1613
same,block of hNav1.4 current,"[7]; 1000 nM, held at −78 mV",approximately 90%
same,pIC50,"[7]; manual WCPC, partially inactivated state, read-out: IC50 of hNav1.4 inhibition",7.13
same,1.x/1.7,"[7]; partially inactivated, hNav1.4 / hNav1.7",120
same,block of hNav1.3 current,"[8]; 1000 nM, held at −68 mV",approximately 90%
same,pIC50,"[8]; manual WCPC, ~20% inactivation, read-out: IC50 of hNav1.3 inhibition",7.28
same,1.x/1.7,"[8]; partially inactivated, hNav1.3 / hNav1.7",85
same,block of hNav1.1 current,"[19]; 1000 nM, held at −70 mV",approximately 95%
same,pIC50,"[19]; manual patch clamp, ~20% inactivation, read-out: IC50 hNav1.1",7.57
same,1.x/1.7,"[19]; partially inactivated, hNav1.1 / hNav1.7",44
same,"block of hNav1.2 current, in words","[20]; 1000 nM, held at −65 mV",blocks the majority of Nav current
same,pIC50,"[20]; manual patch clamp, ~20% inactivation, read-out: IC50 hNav1.2",7.35
same,1.x/1.7,"[20]; partially inactivated, hNav1.2 / hNav1.7",72
same,"block of hNav1.6 current, in words","[21]; 1000 nM, held at −67 mV",blocks the majority of Nav current
same,pIC50,"[21]; manual patch clamp, ~20% inactivation, read-out: IC50 hNav1.6",7.71
same,1.x/1.7,"[21]; partially inactivated, hNav1.6 / hNav1.7",31
same,pIC50,[9],7.95
same,block of TTX-sensitive Nav current,"[9]; 300 nM, C57 Black 6 mouse DRG neuron",approximately 90%
same,1.x/1.7,[9]; partially inactivated,18
same,pIC50,[22],7.51
same,block of TTX-sensitive Nav current,"[22]; 300 nM, Sprague Dawley rat DRG neuron held at −78 mV",approximately 85%
same,1.x/1.7,"[22]; partially inactivated, rTTX-S / hNav1.7",50
same,mean Cmax over the mouse DRG Nav1.7 IC50,[23],196 fold
same,Cmax,[24],2200 nM
same,half-life,[24],~4.5 h
